What was measured:
[1] = molecular target: T1, bisdioxopiperazine resistant Y165S mutant human topoisomerase II α (Homo sapiens, UniProt P11388, Y165S); assay type: biochemical; conditions: FIG. 2-B
T1 construct: made in house; host or cells: yeast (over-expressing yeast cells)
Experimental: Topoisomerase II catalytic activity (DNA strand passage activity) was measured by using a filter-based kDNA decatenation assay as described in Jensen et al., 2002. Briefly, 200 ng ^3H labelled kDNA isolated from C. fasciculata was incubated with increasing concentrations of drug in 20 μL reaction buffer containing 10 mM TRIS-HCl pH 7.7, 50 mM NaCl, 50 mM KCl, 5 mM MgCl2, 1 mM EDTA, 15 μg/mL BSA and 1 mM ATP using two units of purified wild-type or Y165S mutant topoisomerase II α for 20 minutes at 37° C. (where one unit of activity is defined as the amount of enzyme required for complete decatenation in the absence of drug). After addition of 5× stop buffer (5% Sarkosyl, 0.0025% bromophenol blue, and 50% glycerol), unprocessed kDNA network and decatenated DNA mini-circles were separated by filtering, and the amount of unprocessed kDNA in each reaction was determined by scintillation counting.
Inhibition of human topoisomerase II α DNA strand passage activity was assessed by decatenation of tritium-labelled Crithidia fasiculata kDNA using a filter-based assay to separate unprocessed kDNA network from decatenated mini-circles.

topoisomerase II α [2] = molecular target: T2, topoisomerase II α (Homo sapiens, UniProt P11388); assay: Topoisomerase II retention on DNA/streptavidin beads (salt-stable complex); assay type: biochemical; parameters: made in house; host or cells: yeast (over-expressing yeast cells)
T2 sequence (P11388 whole entry): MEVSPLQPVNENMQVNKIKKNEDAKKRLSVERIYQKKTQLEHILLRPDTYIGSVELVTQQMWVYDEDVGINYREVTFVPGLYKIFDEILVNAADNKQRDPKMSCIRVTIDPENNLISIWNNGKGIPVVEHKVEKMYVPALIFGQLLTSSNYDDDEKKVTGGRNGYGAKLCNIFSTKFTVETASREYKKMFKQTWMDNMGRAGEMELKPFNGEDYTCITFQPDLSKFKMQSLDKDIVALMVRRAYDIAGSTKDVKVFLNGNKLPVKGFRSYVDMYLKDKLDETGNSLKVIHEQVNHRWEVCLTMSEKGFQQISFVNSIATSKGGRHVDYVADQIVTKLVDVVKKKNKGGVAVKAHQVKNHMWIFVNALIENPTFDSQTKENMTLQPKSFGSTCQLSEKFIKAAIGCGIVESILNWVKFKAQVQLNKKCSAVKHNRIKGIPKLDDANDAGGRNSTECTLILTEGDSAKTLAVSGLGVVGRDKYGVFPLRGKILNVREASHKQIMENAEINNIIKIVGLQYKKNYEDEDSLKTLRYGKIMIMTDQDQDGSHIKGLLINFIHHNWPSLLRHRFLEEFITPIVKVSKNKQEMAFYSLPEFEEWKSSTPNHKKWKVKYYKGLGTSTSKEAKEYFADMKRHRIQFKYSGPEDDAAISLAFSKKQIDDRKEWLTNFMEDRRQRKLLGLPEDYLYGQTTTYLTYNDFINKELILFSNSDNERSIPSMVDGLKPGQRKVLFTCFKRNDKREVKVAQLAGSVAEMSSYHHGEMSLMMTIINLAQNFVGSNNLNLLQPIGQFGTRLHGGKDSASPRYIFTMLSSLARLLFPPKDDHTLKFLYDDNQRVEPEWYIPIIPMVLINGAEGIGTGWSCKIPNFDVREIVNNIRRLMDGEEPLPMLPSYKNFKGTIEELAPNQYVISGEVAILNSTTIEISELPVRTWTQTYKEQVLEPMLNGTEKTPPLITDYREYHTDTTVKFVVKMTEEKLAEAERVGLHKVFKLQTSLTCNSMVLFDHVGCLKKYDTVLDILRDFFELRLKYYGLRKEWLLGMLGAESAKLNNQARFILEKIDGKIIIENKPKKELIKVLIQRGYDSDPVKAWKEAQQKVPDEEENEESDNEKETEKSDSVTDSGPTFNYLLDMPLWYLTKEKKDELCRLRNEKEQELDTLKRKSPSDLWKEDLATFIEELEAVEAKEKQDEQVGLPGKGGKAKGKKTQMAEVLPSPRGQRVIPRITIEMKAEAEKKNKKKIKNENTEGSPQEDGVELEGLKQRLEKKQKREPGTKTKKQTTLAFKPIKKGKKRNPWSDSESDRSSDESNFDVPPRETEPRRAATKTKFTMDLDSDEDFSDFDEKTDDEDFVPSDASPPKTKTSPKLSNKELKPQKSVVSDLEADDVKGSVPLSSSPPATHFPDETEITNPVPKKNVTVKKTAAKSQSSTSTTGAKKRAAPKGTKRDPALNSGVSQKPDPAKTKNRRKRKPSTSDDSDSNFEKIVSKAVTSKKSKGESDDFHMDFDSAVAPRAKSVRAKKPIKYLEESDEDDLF
Experimental: An assay capable of measuring non-covalent complexes of topoisomerase II on closed circular DNA was performed as described in Morris et al., 2000, with modifications. When performing six reactions, 60 μL M280 streptavidin coated bead (Dynal A/S, Oslo, Norway) slurry corresponding to 600 μg beads was transferred to a 1.5 mL tube that was then placed in a Dynal MPC-E (magnetic particle concentrator) rack (Dynal A/S, Oslo, Norway) for 1 to 2 minutes until the beads had settled on the tube wall. The beads were then washed twice in the DNA binding solution supplied with the kilobase binding kit (Dynal A/S, Oslo, Norway) by repeating this step. Finally, the beads were re-suspended in 250 μL DNA binding solution. A preparation of biotin labelled plasmid DNA containing a 5-kb super coiled circular DNA molecule carrying 8 successive PNA (Peptide Nucleic Acid) linked biotin labels at one known position (pGeneGrip biotin blank vector, Gene Therapy Systems Inc., San Diego, Calif., USA) was made by mixing 220 μL distilled water and 30 μL biotinylated DNA. After mixing the beads and the DNA preparation, the sample was left overnight at room temperature under gentle agitation to assure optimal formation of the DynaBeads DNA complex. Next, the complex was washed twice in 480 μL wash buffer (10 mM TRIS-HCL, pH 7.5, 2 M NaCl, 1 mM EDTA), once in distilled water, and once in topoisomerase reaction buffer (10 mM TRIS-HCl, pH 7.9, 50 mM NaCl, 50 mM KCl, 5 mM MgCl2, 1 mM EDTA, […] BSA). Then, the beads were re-suspended in 600 μL topoisomerase II buffer and divided into 6 tubes. 100 μL reactions containing plasmid DNA coated DynaBeads, topoisomerase II buffer, 2 μg purified human topoisomerase […] and drugs were incubated for 30 minutes at 37° C. When included, ATP was present at 1 mM. […]
FIG. 7 describes the results of studies of the ability of NSC 35866 to stabilise a salt-stable complex of human topoisomerase II α on covalently closed circular DNA. Retention of salt-stable (to 2 M KCl) complexes of human topoisomerase II α on circular DNA attached to magnetic beads via biotin-streptavidin linkage was determined by eluting retained protein by adding running buffer containing 4% SDS followed by heating to 100° C. for 10 minutes. The amount of human topoisomerase II α protein retained was then determined by running the samples on 7% SDS-PAGE gels followed by straining with GelCode Blue Strain Reagent (Pierce, Rockford, Ill., USA): Lane 1, no drug; Lane 2, 200 μM ICRF-187; Lane 3, 30 μM NSC 35866; Lane 4, 100 μM NSC 35866; Lane 5, 300 μM NSC 35866; Lane 6, 1000 μM NSC 35866; Lane K, 2 μg human topoisomerase II α. […]

topoisomerase II α [3] = molecular target: T2, topoisomerase II α; assay: Band depletion assay (extractable topoisomerase II α, western blot); assay type: cell-based; parameters: OC—NYH cells were exposed to increasing concentrations of NSC 35866 for one hour and total proteins were extracted at 0.3 M NaCl; endogenous in cells; host or cells: human small cell lung cancer OC-NYH cells; conditions: OC—NYH cells, one hour
Experimental: Band depletion assay was performed essentially as described in Sehested et al., 1998. The amount of extractable topoisomerase II α was detected by the ECL detection method (Amersham, Buckinghamshire, United Kingdom). OC—NYH cells were exposed to increasing concentrations of NSC 35866 for one hour and total proteins were extracted at 0.3 M NaCl. For detection of topoisomerase II α, a polyclonal primary antibody (Bio Trend, Cologne, Germany) was used. Horseradish peroxidase linked anti-rabbit antibody (Amersham, Buckinghamshire, United Kingdom) was used as secondary antibody.
FIG. 10 describes the results of studies of the ability of NSC 35866 to trap human topoisomerase II α as a non-extractable complex on DNA in a dose dependent manner. The ability of NSC 35866 to stabilise topoisomerase II α as a non-extractable complex on DNA in human SCLC OC—NYH cells was assessed using the band depletion assay as described herein. The amounts of topoisomerase II α was visualised by western blotting using a topoisomerase II α specific primary antibody: Lane 1, no drug; Lane 2, 200 μM ICRF-187; Lane 3, 200 μM NSC 35866; Lane 4, 500 μM NSC 35866; Lane 5, 1000 μM NSC 35866. Band depletion of the topoisomerase II α isoform caused by NSC 35866 was detected in two independent experiments.

T1 sequence (P11388 whole entry Y165S): as the sequence (P11388 whole entry) above, with Y165S counted along it

With `Nc1nc(SCCc2ccccc2)c2nc[nH]c2n1` [NSC 35866, 2-amino-6-(phenylethylthio)-purine] the “inhibition of catalytic activity of the Y165S protein, in words” value [1] was “capable of doing so”, the “retention of topoisomerase II on DNA beads after 2 M KCl wash, in words” value (topoisomerase II α [2]; 30, 100, 300 and 1000 μM, with ATP) was “traps human topoisomerase II α as a salt-stable complex on circular closed DNA in a dose-dependent manner” and the “retention of topoisomerase II on DNA beads, in words” value (topoisomerase II α [2]; in the absence of ATP) was “only at 300 and 1000 μM”. For the same compound, the “effect on amount of extractable topoisomerase II α, in words” value (from here on “effect on amount”) (topoisomerase II α [3]; 200 μM) was “no effect”, the “effect on amount” value (topoisomerase II α [3]; 500 μM) was “reduced the amount of extractable topoisomerase II” and the “effect on amount” value (topoisomerase II α [3]; 1000 μM) was “reduced the amount of extractable topoisomerase II”.
